In patent US20120219496A1, “GADOLINIUM-LINKED NANOCLUSTERS” (priority 2009, published 2012):

Test: R1 relaxivity determination (T1 relaxometry, slope of 1/T1 vs. Gd concentration)
Assay type: physicochemical
Conditions: 1.41 T (60 MHz), 40° C.
Procedure: Instrumentation. Dynamic light scattering (DLS) measurements were performed on a Zetasizer Nano from Malvern Instruments. The scattering angle was held constant at 90°. Microscopy measurements were performed on an Olympus IX 81 motorized inverted fluorescence microscope equipped with an Andor DU897 EMCCD, an X-Cite 120 excitation source (EXFO) and Sutter excitation and emission filter wheels. Image of FITC was acquired using the filter set HQ480/40, HQ535/50, Q505LP. Filter set was purchased from Chroma. Tl-relaxation times were determined using a Bruker mq60 MR relaxometer operating at 1.41 T (60 MHz). ICP-AES was performed by VHG Laboratories (Manchester, N.H.). Transmission electron microscopy (TEM) was performed with a JEOL 2010 electron microscope operated at 80 kV.
To assess the paramagnetic properties of the Gd-conjugated DNCs, the amount of Gd within the sample was determined by inductively coupled plasma atomic emission spectroscopy (ICP-AES). Tl-relaxation times were determined using a Bruker mq60 MR relaxometer operating at 1.41 T (60 MHz) and at 40° C. […] It is likely that only a marginal increase in R1 was observed, despite the larger size of DNCs, due to the “saturation” of ion relaxivity, which has also previously been reported for high generation dendrimers. As a point of comparison, Gd-DTPA was determined to have an R1 of 3.9 mM^−1 s^−1 per Gd.

- R1 relaxivity per Gd: 3.9 mM⁻¹ s⁻¹
SMILES: O=C([O-])CN(CCN(CC(=O)[O-])CC(=O)O)CCN(CC(=O)[O-])CC(=O)O.[Gd+3] [Gd-DTPA]
